Source: ChEMBL document CHEMBL1201862, “PubChem BioAssay data set” (2004)
Activity calls are given as the source filed them.

Legend:
[1] = molecular target: T1, Microphthalmia-associated transcription factor (Homo sapiens, UniProt O75030); assay: reducers of TRPM1 reporter luminescence, concentration series – cell-based, SK-MEL-5, cherry-picked, set 3, MITF inhibitor project, dose response (AID 493073); assay type: functional;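 also: SK-MEL-5 melanoma cells with luciferase driven by the MITF target TRPM1 promoter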
T1 sequence (O75030 whole entry): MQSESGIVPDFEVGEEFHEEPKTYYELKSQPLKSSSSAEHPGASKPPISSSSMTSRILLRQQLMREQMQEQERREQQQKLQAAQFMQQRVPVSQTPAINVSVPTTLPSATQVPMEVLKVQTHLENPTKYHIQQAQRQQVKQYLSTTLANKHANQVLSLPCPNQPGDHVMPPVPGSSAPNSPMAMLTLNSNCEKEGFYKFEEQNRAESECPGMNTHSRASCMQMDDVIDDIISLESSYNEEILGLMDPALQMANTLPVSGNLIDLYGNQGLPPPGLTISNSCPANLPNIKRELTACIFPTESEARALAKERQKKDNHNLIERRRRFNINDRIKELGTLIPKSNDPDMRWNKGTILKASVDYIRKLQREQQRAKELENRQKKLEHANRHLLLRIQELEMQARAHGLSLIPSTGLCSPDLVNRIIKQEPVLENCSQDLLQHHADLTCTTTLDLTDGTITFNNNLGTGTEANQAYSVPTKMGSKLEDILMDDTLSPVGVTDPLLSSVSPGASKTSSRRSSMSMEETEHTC

[2] = system: BJ; assay: cells; assay type: functional, cell-based; conditions: Homo sapiens
[3] = MIN6 cell viability loss – mouse insulinoma, cytotoxicity control, dose response (AID 2122); assay type: functional;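 also: confirmatory high-throughput counterscreen run to flag cytotoxic compounds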
[4] = system: BJ; assay: BJ-TERT fibroblast viability loss – cell-based, RAS-independent, luminescence, dose response (AID 1933); assay type: functional; conditions: Homo sapiens
[5] = system: BJ; assay: BJ-TERT-LT-ST fibroblast viability loss – cell-based, RAS-independent, luminescence, dose response (AID 1935); assay type: functional; conditions: Homo sapiens;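 also: BJ fibroblasts immortalized with TERT plus LT and ST oncogenes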
[6] = DRD fibroblast viability loss – cell-based, non-viral oncogenic, luminescence, dose response (AID 1934); assay type: functional; conditions: Homo sapiens
[7] = decrease of insulin promoter-GFP reporter – imaging, high-content screening, mouse beta cells (AID 1628); assay type: functional; conditions: MIN6
[8] = molecular target: T2, Low molecular weight phosphotyrosine protein phosphatase (Homo sapiens, UniProt P24666); assay type: functional; conditions: read-out: IC50_Mean;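 also: Dose-response confirmation assay measuring inhibition of LMPTP enzyme activity by fluorescence intensity read-out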
T2 sequence (P24666 whole entry): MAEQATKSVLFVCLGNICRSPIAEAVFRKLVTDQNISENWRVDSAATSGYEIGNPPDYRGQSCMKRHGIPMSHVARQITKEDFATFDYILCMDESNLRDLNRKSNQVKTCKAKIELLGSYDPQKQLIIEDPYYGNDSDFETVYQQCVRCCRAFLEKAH

[9] = system: Streptococcus; assay: GAS UMAA2166 growth inhibition – luminescence, BacTiterGlo, counter-screen for streptokinase expression inhibitor project, dose response (AID 1915); assay type: functional, organism-based;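 also: potency for reduction of bacterial viability or growth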
[10] = system: Streptococcus sp. 'group A'; assay: Streptococcus pyogenes SK(-)GAS viability under kanamycin – luminescence, BacTiterGlo, confirmation, counter-screen for streptokinase expression inhibitor project, dose response (AID 1900); assay type: functional, organism-based
[11] = molecular target: T3, Endoribonuclease toxin MazF (Escherichia coli K-12, UniProt P0AE70); assay: activation of MazEF endoribonuclease cleavage – biochemical, fluorescence, single-stranded RNA substrate, uHTS hits, dose response (AID 588481); assay type: functional
T3 sequence (P0AE70 whole entry): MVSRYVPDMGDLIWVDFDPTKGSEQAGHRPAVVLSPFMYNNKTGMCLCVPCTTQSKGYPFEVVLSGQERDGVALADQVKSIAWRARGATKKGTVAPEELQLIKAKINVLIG

[12] = molecular target: T4, Zinc finger protein mex-5 (Caenorhabditis elegans, UniProt Q9XUB2); assay: potency of MEX-5 RNA-binding blockers – biochemical, C. elegans, fluorescence polarization, dose response (AID 1960)
T4 sequence (Q9XUB2 whole entry): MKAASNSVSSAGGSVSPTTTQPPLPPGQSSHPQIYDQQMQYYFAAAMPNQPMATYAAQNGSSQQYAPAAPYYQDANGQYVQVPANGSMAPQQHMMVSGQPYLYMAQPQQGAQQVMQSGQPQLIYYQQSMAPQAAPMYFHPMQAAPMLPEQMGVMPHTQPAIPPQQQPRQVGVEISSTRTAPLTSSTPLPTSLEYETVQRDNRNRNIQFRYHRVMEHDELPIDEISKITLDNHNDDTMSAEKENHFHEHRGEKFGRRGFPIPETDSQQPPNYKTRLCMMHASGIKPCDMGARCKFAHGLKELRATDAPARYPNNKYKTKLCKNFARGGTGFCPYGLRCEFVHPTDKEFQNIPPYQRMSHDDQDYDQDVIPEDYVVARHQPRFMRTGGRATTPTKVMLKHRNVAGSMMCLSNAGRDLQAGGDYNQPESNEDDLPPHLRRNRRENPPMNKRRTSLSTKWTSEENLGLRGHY

[13] = molecular target: T5, RNA-binding protein pos-1 (Caenorhabditis elegans, UniProt G5EF15); assay: disruptors of C. elegans POS-1 RNA interaction – biochemical, fluorescence polarization, dose response (AID 1964);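 also: purified POS-1 fused to maltose binding protein made in E. coli; potency of compounds blocking POS-1 binding to fluorescent RNA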
T5 sequence (G5EF15 whole entry): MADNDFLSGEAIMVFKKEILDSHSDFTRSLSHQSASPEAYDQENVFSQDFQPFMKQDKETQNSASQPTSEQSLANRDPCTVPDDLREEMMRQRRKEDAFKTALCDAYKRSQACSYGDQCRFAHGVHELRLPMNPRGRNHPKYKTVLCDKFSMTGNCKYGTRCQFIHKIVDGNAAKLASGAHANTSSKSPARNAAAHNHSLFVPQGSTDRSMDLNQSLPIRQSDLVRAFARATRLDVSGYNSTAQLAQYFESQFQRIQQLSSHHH

[14] = molecular target: Induced myeloid leukemia cell differentiation protein Mcl-1 (Homo sapiens, UniProt Q07820); assay type: functional
Induced myeloid leukemia cell differentiation protein Mcl-1, sequence (Q07820 whole entry): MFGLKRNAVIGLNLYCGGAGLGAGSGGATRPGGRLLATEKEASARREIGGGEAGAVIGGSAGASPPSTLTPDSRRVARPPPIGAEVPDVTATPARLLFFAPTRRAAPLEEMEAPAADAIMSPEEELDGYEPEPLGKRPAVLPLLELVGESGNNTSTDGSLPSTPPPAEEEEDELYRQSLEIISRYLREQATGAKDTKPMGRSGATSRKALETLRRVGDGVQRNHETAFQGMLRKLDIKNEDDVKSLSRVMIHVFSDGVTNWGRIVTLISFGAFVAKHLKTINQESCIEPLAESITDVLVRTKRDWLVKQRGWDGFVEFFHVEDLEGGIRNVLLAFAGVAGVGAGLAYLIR

[15] = molecular target: T3, Endoribonuclease toxin MazF; assay: substrate-only fluorescence increase artefacts – biochemical, single-stranded RNase substrate, counter-screen for MazEF activator project, dose response (AID 588502); assay type: functional
[16] = blockers of HIV-1 ZM109 envelope-driven cell-cell fusion – HeLa effector, CEM target cells, luciferase, cherry-pick, dose response (AID 652058); assay type: functional, cell-based;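 also: luciferase signal from HIV-1 Env mediated cell-cell fusion of effector and target cells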
[17] = blockers of HIV-1 envelope-mediated cell-cell fusion – cherry-pick, dose response (AID 652057); assay type: functional, cell-based
[18] = molecular target: Glucose-6-phosphate 1-dehydrogenase (Homo sapiens, UniProt P11413); assay: inhibition of Homo sapiens G6PD, dose series – biochemical, fluorescence, selectivity assay for P. falciparum G6PD inhibitor project, dose response (AID 504792); assay type: functional
Glucose-6-phosphate 1-dehydrogenase, sequence (P11413 whole entry, the tested form may be a part): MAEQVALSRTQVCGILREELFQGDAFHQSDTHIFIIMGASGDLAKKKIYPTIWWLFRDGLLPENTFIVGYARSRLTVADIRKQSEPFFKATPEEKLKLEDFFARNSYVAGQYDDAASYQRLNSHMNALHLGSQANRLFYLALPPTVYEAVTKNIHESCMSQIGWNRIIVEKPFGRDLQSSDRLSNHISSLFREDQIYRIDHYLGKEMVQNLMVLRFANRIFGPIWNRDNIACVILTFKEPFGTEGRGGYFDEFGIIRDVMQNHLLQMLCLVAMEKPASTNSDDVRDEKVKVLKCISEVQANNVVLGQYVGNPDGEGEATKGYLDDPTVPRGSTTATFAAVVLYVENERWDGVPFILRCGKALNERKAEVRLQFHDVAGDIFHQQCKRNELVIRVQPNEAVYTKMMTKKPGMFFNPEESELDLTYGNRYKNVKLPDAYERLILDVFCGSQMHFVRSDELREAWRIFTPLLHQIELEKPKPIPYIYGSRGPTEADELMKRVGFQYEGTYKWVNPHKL

[19] = HIV-1 AD8 envelope cell-cell fusion blockers – cherry-pick, dose response (AID 652062); assay type: functional, cell-based;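 also: luciferase signal from cell-cell fusion driven by HIV-1 clade B AD8 Env; potency is for inhibitors of fusion seen as a drop in luminescence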
[20] = viability loss in CEM21 cells – cell-based, CellTiter-Glo luminescence, cherry-picked, cytotoxicity control for viral fusion inhibitor project, dose response (AID 652042); assay type: functional;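 also: potency for signal decrease meaning cytotoxicity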
[21] = molecular target: T6, Ubiquitin-conjugating enzyme E2 N (Homo sapiens, UniProt P61088); assay type: functional;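 also: Dose-response confirmation in a TR-FRET assay detecting UBC13-driven polyubiquitin chain formation, inhibition measured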
T6 sequence (P61088 whole entry): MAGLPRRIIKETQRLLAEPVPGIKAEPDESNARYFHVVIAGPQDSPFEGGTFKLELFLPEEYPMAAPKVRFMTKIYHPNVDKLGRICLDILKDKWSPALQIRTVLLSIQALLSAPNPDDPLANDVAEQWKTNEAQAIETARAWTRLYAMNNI

[22] = off-target signal loss in HeLa-CEM21 co-culture – HeLa F-luc CTL cells, cherry-picked, counter-screen for HIV-1 Env fusion inhibitor project, dose response (AID 652040); assay type: functional, cell-based;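 also: potency for signal decrease marking cytotoxic or nonspecific inhibition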
[23] = molecular target: Dual specificity tyrosine-phosphorylation-regulated kinase 1A (Rattus norvegicus, UniProt Q63470); assay type: biochemical, Homo sapiens
[24] = molecular target: T7, Apoptotic protease-activating factor 1 (Homo sapiens, UniProt O14727); assay type: functional
T7 sequence (O14727 whole entry): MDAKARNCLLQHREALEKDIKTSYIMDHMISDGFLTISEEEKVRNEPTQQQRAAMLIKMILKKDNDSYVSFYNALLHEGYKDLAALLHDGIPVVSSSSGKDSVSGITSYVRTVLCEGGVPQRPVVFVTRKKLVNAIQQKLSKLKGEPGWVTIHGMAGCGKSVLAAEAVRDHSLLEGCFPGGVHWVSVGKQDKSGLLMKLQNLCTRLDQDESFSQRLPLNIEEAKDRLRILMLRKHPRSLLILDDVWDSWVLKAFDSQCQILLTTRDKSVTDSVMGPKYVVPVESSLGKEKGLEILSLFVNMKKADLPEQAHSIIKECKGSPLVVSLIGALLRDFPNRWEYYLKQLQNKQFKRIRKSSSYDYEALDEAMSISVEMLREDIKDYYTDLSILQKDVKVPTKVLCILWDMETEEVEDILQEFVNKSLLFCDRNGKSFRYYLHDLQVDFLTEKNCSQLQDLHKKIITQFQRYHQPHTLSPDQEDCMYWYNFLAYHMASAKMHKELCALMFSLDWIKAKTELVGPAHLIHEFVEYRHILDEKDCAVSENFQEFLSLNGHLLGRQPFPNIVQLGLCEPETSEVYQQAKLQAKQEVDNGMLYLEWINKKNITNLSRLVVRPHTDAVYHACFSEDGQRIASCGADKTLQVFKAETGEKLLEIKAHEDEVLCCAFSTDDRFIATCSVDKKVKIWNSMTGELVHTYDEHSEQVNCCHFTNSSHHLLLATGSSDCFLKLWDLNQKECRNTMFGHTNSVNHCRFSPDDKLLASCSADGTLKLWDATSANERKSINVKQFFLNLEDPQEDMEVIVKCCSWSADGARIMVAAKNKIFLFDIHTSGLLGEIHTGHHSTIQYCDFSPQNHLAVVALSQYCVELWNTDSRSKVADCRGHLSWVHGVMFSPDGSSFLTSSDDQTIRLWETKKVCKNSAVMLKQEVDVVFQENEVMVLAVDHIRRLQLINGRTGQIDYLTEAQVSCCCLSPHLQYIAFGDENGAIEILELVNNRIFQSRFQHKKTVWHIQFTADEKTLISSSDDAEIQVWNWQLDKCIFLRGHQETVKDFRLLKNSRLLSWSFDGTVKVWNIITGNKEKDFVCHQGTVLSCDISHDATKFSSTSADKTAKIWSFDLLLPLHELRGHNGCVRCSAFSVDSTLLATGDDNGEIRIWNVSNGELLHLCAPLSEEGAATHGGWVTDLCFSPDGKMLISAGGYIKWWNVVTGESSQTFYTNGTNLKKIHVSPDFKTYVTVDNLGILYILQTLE

[25] = Luminescence Cell-Based Dose Retest to Confirm Inhibitors of Cancer Stem Cells. [Related pubchem assays (depositor defined):AID2717, AID2721]; assay type: functional; conditions: Homo sapiens
[26] = molecular target: Nonstructural protein 1 (Influenza A virus, UniProt Q194T2); assay type: functional, Influenza A virus (A/California/07/2009(H1N1))
Nonstructural protein 1, sequence (Q194T2 whole entry): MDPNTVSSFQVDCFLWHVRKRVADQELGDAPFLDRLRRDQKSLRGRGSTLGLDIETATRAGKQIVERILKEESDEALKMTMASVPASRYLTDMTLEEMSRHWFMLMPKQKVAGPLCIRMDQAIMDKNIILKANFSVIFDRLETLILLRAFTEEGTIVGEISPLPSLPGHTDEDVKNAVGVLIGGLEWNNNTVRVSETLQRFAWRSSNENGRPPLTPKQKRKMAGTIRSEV

[27] = system: INS1; assay: INS-1E survival protection against cytokine death – cell-based, luminescence, retest, dose response (AID 449756); assay type: functional; conditions: Rattus norvegicus;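 also: cell death triggered by IL-1 beta plus TNF-alpha plus IFN-gamma mixture; protective hits raise ATP signal compared with cytokine alone wells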
[28] = molecular target: Genome polyprotein (dengue virus type 2, UniProt P29990); assay: flavivirus cap methylation enzyme inhibition – biochemical, confirmation dose response, primary screen (AID 588689); assay type: functional
Genome polyprotein, sequence (P29990 2492-3391 limits assumed): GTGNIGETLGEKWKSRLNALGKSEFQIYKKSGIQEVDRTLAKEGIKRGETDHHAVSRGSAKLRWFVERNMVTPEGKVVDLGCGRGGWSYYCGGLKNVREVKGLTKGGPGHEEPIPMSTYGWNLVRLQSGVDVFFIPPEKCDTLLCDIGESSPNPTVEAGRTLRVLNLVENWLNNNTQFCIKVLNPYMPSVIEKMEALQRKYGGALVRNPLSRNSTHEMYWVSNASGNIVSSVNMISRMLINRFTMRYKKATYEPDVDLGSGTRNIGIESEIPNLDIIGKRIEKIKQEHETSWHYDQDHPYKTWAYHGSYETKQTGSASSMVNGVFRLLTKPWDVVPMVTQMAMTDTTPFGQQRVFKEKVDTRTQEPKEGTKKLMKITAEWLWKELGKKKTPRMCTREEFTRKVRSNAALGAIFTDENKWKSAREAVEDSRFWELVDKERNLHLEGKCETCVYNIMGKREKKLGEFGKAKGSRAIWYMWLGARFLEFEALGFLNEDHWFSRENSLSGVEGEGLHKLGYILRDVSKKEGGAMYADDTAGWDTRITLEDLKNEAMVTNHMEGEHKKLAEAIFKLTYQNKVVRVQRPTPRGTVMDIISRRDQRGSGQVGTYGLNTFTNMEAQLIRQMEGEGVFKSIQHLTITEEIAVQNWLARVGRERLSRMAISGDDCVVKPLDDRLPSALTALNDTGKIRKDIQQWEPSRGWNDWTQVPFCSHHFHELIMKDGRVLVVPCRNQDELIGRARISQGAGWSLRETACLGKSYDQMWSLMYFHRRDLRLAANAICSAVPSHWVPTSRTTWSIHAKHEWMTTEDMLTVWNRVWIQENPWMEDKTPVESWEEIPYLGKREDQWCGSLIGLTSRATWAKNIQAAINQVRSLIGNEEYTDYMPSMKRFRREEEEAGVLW

Cc1cc(-n2c(C)cc(C(=O)CCl)c2C)no1
AC50 [1]: 5.5 µM (active) | EC50 [2]: 2.76 µM (active) | IC50 [3]: 1.66 µM (active) | EC50 [4]: 4.75 µM (inconclusive) | EC50 [5]: 1.91 µM (inconclusive) | EC50 [6]: 10.9 µM (inconclusive) | IC50 [7]: 3.25 µM (active)

CCn1cc(C(=O)O)c(=O)c2cc(F)c(N3CCN(S(=O)(=O)c4ccc5c(c4)OCCO5)CC3)cc21
IC50 [8]: 5.48 µM (active) | EC50 [9]: 5.81 µM (active) | EC50 [10]: 2.84 µM (active)

O=C1C(=Cc2cccn2-c2ccccc2)C(=O)c2ccccc21
EC50 [11]: > 99 µM (inactive) | EC50 [12]: 175 µM (active) | EC50 [13]: 68.6 µM (active) | IC50 [14]: 4.55 µM (active) | EC50 [15]: 60.7 µM (inactive)

CCC(C)N(CCNC(=O)c1ccc2c(c1)NC(=O)c1ccccc1S2)C1CCCCC1 (stereo not given)
AC50 [16]: 923 nM (active) | AC50 [17]: 758 nM (active) | IC50 [18]: > 80 µM (inactive) | AC50 [19]: 3.82 µM (active) | AC50 [20]: 45.1 µM (active) | IC50 [21]: > 20 µM (inactive) | AC50 [22]: 1.09 µM (active)

O=C1/C(=C/c2ccc3c(c2)OCO3)Oc2cc(OCC(=O)N3CCC[C@H]3C(=O)O)ccc21
AC50 [23]: 4.59 µM (active)

COC(=O)C1=C(C)N(C)C(C)=C(C(=O)OC)C1c1ccccn1
EC50 [11]: > 99 µM (inactive) | EC50 [15]: 56.4 µM (inactive)

O=C(CSc1nnc(-c2ccco2)o1)c1ccc[nH]1
IC50 [8]: 38.1 µM (inactive)

Cc1ccc(S(=O)(=O)SCCCSS(=O)(=O)c2ccc(C)cc2)cc1
IC50 [18]: 26.7 µM (inactive)

CCOC(=O)c1cnn(-c2c(Cc3ccccc3)c(C)nc3c(-c4ccccc4)c(C)nn23)c1N
IC50 [24]: 4 µM (active)

CC(C)n1cnc2c(NCc3ccccc3)cc(N[C@H](C)CO)cc21
AC50 [25]: 6.67 µM (active) | IC50 [26]: 61.9 µM (active) | IC50 [24]: 1.22 µM (active) | AC50 [27]: 1.52 µM (active)

COC(=O)CCC(=O)OC1(C)C(=O)C2=CN(c3ccccc3)C(c3ccc(OC)cc3)=CC2=C(Br)C1=O (stereo not given)
IC50 [28]: > 100 µM (active) | IC50 [18]: 42.1 µM (inactive)

O=C1N=C(N2CCc3ccccc3C2)S/C1=C\c1ccc(O)cc1
AC50 [23]: 0.737 µM (active)
